# Patent US20240109903A1, “SUBSTITUTED HETEROCYCLES FOR TREATING CANCER” (Northwestern University, priority 2022, published 2024)
# Like-named read-outs stand apart in the source and are kept apart here.
# Key:
# MDA-MB-231/ATCC = assay: NCI 60 five-dose screen MDA-MB-231/ATCC; format: cell-based; conditions: Homo sapiens; for CC50: read-out: LC50 (the source's name) (converted)
# SN12C = assay: NCI 60 five-dose screen SN12C; format: cell-based; conditions: Homo sapiens; for CC50: read-out: LC50 (the source's name) (converted)
# SF-539 = assay: NCI 60 five-dose screen SF-539; format: cell-based; conditions: Homo sapiens; for CC50: read-out: LC50 (the source's name) (converted)
# UACC-62 = assay: NCI 60 five-dose screen UACC-62; format: cell-based; conditions: Homo sapiens; for CC50: read-out: LC50 (the source's name) (converted)
# 786-0 = assay: NCI 60 five-dose screen 786-0; format: cell-based; conditions: Homo sapiens; for CC50: read-out: LC50 (the source's name) (converted)
# HCT-15 = assay: NCI 60 five-dose screen HCT-15; format: cell-based; conditions: Homo sapiens; for CC50: read-out: LC50 (the source's name) (converted)
# M14 = assay: NCI 60 five-dose screen M14; format: cell-based; conditions: Homo sapiens; for CC50: read-out: LC50 (the source's name) (converted)
# ACHN = assay: NCI 60 five-dose screen ACHN; format: cell-based; conditions: Homo sapiens; for CC50: read-out: LC50 (the source's name) (converted)
# NCI-H460 = assay: NCI 60 five-dose screen NCI-H460; format: cell-based; conditions: Homo sapiens; for CC50: read-out: LC50 (the source's name) (converted)
# SW-620 = assay: NCI 60 five-dose screen SW-620; format: cell-based; conditions: Homo sapiens; for CC50: read-out: LC50 (the source's name) (converted)
# EKVX = assay: NCI 60 five-dose screen EKVX; format: cell-based; conditions: Homo sapiens; for CC50: read-out: LC50 (the source's name) (converted)
# MDA-MB-435 = assay: NCI 60 five-dose screen MDA-MB-435; format: cell-based; conditions: Homo sapiens; for CC50: read-out: LC50 (the source's name) (converted)
# full NCI 60 cell panel = assay: NCI 60 Cell One-dose screen; format: cell-based, human; conditions: single high dose 10^−5 M, NCI 60 panel
# Source text: Compounds were submitted to the NCI 60 Cell screen and tested at a single high dose (10^−5 M) in the full NCI 60 cell panel (see the following reference for details of using NCI 60 human tumor cell lines for screening anticancer drugs: Shoemaker R H. The NCI60 human tumor cell line anticancer drug screen. Nature Rev Cancer 2006; 6: 813-23). The One-dose data is reported as a mean graph of the percent growth of treated cells. The number reported for the One-dose assay is growth relative to the no-drug control, and relative to the time zero number of cells. This allows detection of both growth inhibition (values between 0 and 100) and lethality (values less than 0). For example, a value of 100 means no growth inhibition. A value of 40 would mean 60% growth inhibition. A value of 0 means no net growth over the course of the experiment. A value of −40 would mean 40% lethality. A value of −100 means all cells are dead. FIGS. 1-8 show the mean graph of percent growth against the NCI-60 cell panel for NUCC-0226674, NUCC-0226679, NUCC-0226680, NUCC-0226683, NUCC-0226689, NUCC-0226694, NUCC-0226695, and NUCC-0226698.
# SF-295 = assay: NCI 60 five-dose screen SF-295; format: cell-based; conditions: Homo sapiens; for CC50: read-out: LC50 (the source's name) (converted)
# RXF 393 = assay: NCI 60 five-dose screen RXF 393; format: cell-based; conditions: Homo sapiens; for CC50: read-out: LC50 (the source's name) (converted)
# HCT-116 = assay: NCI 60 five-dose screen HCT-116; format: cell-based; conditions: Homo sapiens; for CC50: read-out: LC50 (the source's name) (converted)
# HT29 = assay: NCI 60 five-dose screen HT29; format: cell-based; conditions: Homo sapiens
# BT-549 = assay: NCI 60 five-dose screen BT-549; format: cell-based; conditions: Homo sapiens; for CC50: read-out: LC50 (the source's name) (converted)
# MCF7 = assay: NCI 60 five-dose screen MCF7; format: cell-based; conditions: Homo sapiens; for CC50: read-out: LC50 (the source's name) (converted)
# [1] = tested on: MV-4-11 acute myeloid leukemia cells; assay: CellTiter-Glo 2.0 cell viability, MV-4-11; format: cell-based; conditions: Homo sapiens
# Protocol: 2019 October; 94(4): 1813-1823.
# Cell viability was assessed using the CellTiter-Glo 2.0 assay from Promega, which yields a signal proportional to the amount of ATP present in a cell population. Compounds were first dispensed into empty 96-well flat-bottom tissue culture-treated plates (Corning) using an Echo550. MV4-1 cells were diluted to a density of 0.1 million cells per ml, pipetted onto the compounds at a density of 1,000 cells per well for U937 and 3,000 cells per well for MV4-11, mixed, and incubated for 3 days at 37° C. with 5% C02. After incubating, 5 μl of cells from each well were added to 5 μl of CellTiter-Glo 2.0 reagent in a384-well white ProxiPlate (PerkinElmer), incubated for 20 minutes at ambient temperature, and luminescence was analyzed on an EnSpire plate reader. Graphing and regression analysis was performed in Graphpad Prism.
# [2] = MV4-11, 72 h, MV-4-11 cells, 3 days, CellTiter-Glo 2.0, read-out: IC50 (uM) [Cell Type: MV-4-11]
# [3] = MV4-11, bound stated in text, read-out: IC50 against MV-4-11 acute myeloid leukemia cells
smiles,measurement,setting,value
FC(F)(F)c1cc2c(Cl)ncnc2n1CCC1CCOCC1 [NUCC-0226674],GI50,MDA-MB-231/ATCC; five-dose,3.89 µM
same,IC50,MDA-MB-231/ATCC; five-dose,8.13 µM
same,IC (TGI),MDA-MB-231/ATCC; five-dose,14.1 µM
same,CC50,MDA-MB-231/ATCC; five-dose,43.7 µM
same,GI50,SN12C; five-dose,6.61 µM
same,IC50,SN12C; five-dose,12.6 µM
same,IC (TGI),SN12C; five-dose,20 µM
same,CC50,SN12C; five-dose,46.8 µM
same,GI50,SF-539; five-dose,13.8 µM
same,IC50,SF-539; five-dose,24.5 µM
same,IC (TGI),SF-539; five-dose,27.5 µM
same,CC50,SF-539; five-dose,56.2 µM
same,GI50,UACC-62; five-dose,4.27 µM
same,IC50,UACC-62; five-dose,8.13 µM
same,IC (TGI),UACC-62; five-dose,15.8 µM
same,CC50,UACC-62; five-dose,40.7 µM
same,GI50,786-0; five-dose,16.2 µM
same,IC50,786-0; five-dose,28.2 µM
same,IC (TGI),786-0; five-dose,32.4 µM
same,CC50,786-0; five-dose,64.6 µM
same,GI50,HCT-15; five-dose,2.95 µM
same,IC50,HCT-15; five-dose,3.8 µM
same,IC (TGI),HCT-15; five-dose,11 µM
same,CC50,HCT-15; five-dose,41.7 µM
same,GI50,M14; five-dose,3.72 µM
same,IC50,M14; five-dose,6.31 µM
same,IC (TGI),M14; five-dose,16.2 µM
same,CC50,M14; five-dose,50.1 µM
same,GI50,ACHN; five-dose,11 µM
same,IC50,ACHN; five-dose,18.6 µM
same,IC (TGI),ACHN; five-dose,26.3 µM
same,CC50,ACHN; five-dose,61.7 µM
same,GI50,NCI-H460; five-dose,2.4 µM
same,IC50,NCI-H460; five-dose,3.55 µM
same,IC (TGI),NCI-H460; five-dose,5.62 µM
same,CC50,NCI-H460; five-dose,22.4 µM
same,GI50,SW-620; five-dose,12 µM
same,IC50,SW-620; five-dose,17.4 µM
same,IC (TGI),SW-620; five-dose,28.2 µM
same,CC50,SW-620; five-dose,67.6 µM
same,GI50,EKVX; five-dose,12.6 µM
same,IC50,EKVX; five-dose,25.7 µM
same,IC (TGI),EKVX; five-dose,28.2 µM
same,CC50,EKVX; five-dose,64.6 µM
same,GI50,MDA-MB-435; five-dose,5.01 µM
same,IC50,MDA-MB-435; five-dose,8.13 µM
same,IC (TGI),MDA-MB-435; five-dose,18.2 µM
same,CC50,MDA-MB-435; five-dose,49 µM
same,growth inhibition in the One-Dose Screen,full NCI 60 cell panel,significant growth inhibition
same,GI50,SF-295; five-dose,13.8 µM
same,IC50,SF-295; five-dose,25.1 µM
same,IC (TGI),SF-295; five-dose,27.5 µM
same,CC50,SF-295; five-dose,56.2 µM
same,GI50,RXF 393; five-dose,8.71 µM
same,IC50,RXF 393; five-dose,24 µM
same,IC (TGI),RXF 393; five-dose,21.9 µM
same,CC50,RXF 393; five-dose,51.3 µM
same,GI50,HCT-116; five-dose,2.34 µM
same,IC50,HCT-116; five-dose,3.24 µM
same,IC (TGI),HCT-116; five-dose,6.46 µM
same,CC50,HCT-116; five-dose,28.8 µM
same,GI50,"HT29; HT-29, five-dose",13.8 µM
same,IC50,"HT29; HT-29, five-dose",21.4 µM
same,IC (TGI),"HT29; HT-29, five-dose",44.7 µM
same,CC50,"HT29; HT-29, five-dose, read-out: LC50 (the source's name) (converted)",≥ 100 µM
same,GI50,BT-549; five-dose,10.2 µM
same,IC50,BT-549; five-dose,23.4 µM
same,IC (TGI),BT-549; five-dose,22.4 µM
same,CC50,BT-549; five-dose,50.1 µM
same,GI50,MCF7; five-dose,11.5 µM
same,IC50,MCF7; five-dose,19.1 µM
same,IC (TGI),MCF7; five-dose,36.3 µM
same,CC50,MCF7; five-dose,≥ 100 µM
same,IC50,[1]; [2],1.29 µM
same,IC50,[1]; [3],< 2 µM
Fc1ccc(N2CC(Cn3c(C(F)(F)F)cc4c(Cl)ncnc43)C2)c(F)c1 [NUCC-0226695],GI50,MDA-MB-231/ATCC,1.62 µM
same,IC50,MDA-MB-231/ATCC,2.95 µM
same,IC (TGI),MDA-MB-231/ATCC,3.09 µM
same,CC50,MDA-MB-231/ATCC,5.89 µM
same,GI50,SN12C,1.95 µM
same,IC50,SN12C,3.31 µM
same,IC (TGI),SN12C,5.01 µM
same,CC50,SN12C,16.2 µM
same,GI50,SF-539,13.8 µM
same,IC50,SF-539,24.5 µM
same,IC (TGI),SF-539,28.2 µM
same,CC50,SF-539,58.9 µM
same,GI50,UACC-62,3.16 µM
same,IC50,UACC-62,5.62 µM
same,IC (TGI),UACC-62,12.9 µM
same,CC50,UACC-62,36.3 µM
same,GI50,786-0,14.8 µM
same,IC50,786-0,26.3 µM
same,IC (TGI),786-0,28.8 µM
same,CC50,786-0,57.5 µM
same,GI50,HCT-15,1.78 µM
same,IC50,HCT-15,3.09 µM
same,IC (TGI),HCT-15,3.55 µM
same,CC50,HCT-15,7.08 µM
same,GI50,M14,2.95 µM
same,IC50,M14,4.37 µM
same,IC (TGI),M14,10.7 µM
same,CC50,M14,45.7 µM
same,GI50,ACHN,12.9 µM
same,IC50,ACHN,21.9 µM
same,IC (TGI),ACHN,27.5 µM
same,CC50,ACHN,58.9 µM
same,GI50,NCI-H460,3.98 µM
same,IC50,NCI-H460,4.68 µM
same,IC (TGI),NCI-H460,14.5 µM
same,CC50,NCI-H460,44.7 µM
same,GI50,SW-620,1.91 µM
same,IC50,SW-620,3.16 µM
same,IC (TGI),SW-620,3.8 µM
same,CC50,SW-620,7.76 µM
same,GI50,EKVX,6.61 µM
same,IC50,EKVX,16.6 µM
same,IC (TGI),EKVX,20 µM
same,CC50,EKVX,46.8 µM
same,GI50,MDA-MB-435,4.9 µM
same,IC50,MDA-MB-435,7.59 µM
same,IC (TGI),MDA-MB-435,17.8 µM
same,CC50,MDA-MB-435,44.7 µM
same,growth inhibition in the One-Dose Screen,full NCI 60 cell panel,significant growth inhibition
same,GI50,SF-295,11.5 µM
same,IC50,SF-295,20 µM
same,IC (TGI),SF-295,24.5 µM
same,CC50,SF-295,52.5 µM
same,GI50,RXF 393,2.09 µM
same,IC50,RXF 393,5.37 µM
same,IC (TGI),RXF 393,5.01 µM
same,CC50,RXF 393,15.5 µM
same,GI50,HCT-116,1.91 µM
same,IC50,HCT-116,3.16 µM
same,IC (TGI),HCT-116,3.89 µM
same,CC50,HCT-116,7.94 µM
same,GI50,HT29; HT-29,3.47 µM
same,IC50,HT29; HT-29,4.27 µM
same,IC (TGI),HT29; HT-29,16.2 µM
same,CC50,"HT29; HT-29, read-out: LC50 (the source's name) (converted)",97.7 µM
same,GI50,BT-549,10.7 µM
same,IC50,BT-549,23.4 µM
same,IC (TGI),BT-549,22.9 µM
same,CC50,BT-549,49 µM
same,GI50,MCF7,8.13 µM
same,IC50,MCF7,12.9 µM
same,IC (TGI),MCF7,23.4 µM
same,CC50,MCF7,60.3 µM
same,IC50,[1]; [2],0.739 µM
same,IC50,[1]; [3],< 2 µM
